Experimental data published in patent US10125184B2, “Apolipoprotein E polypeptides and their use” (priority 2011, dated 2018).

What was measured:
Huh7.5.1 cells = assay: Cytotoxicity/cell viability assay (CellTiter-Glo); type: cell-based; conditions: 48 hours; hEP up to 100 μg/ml (~14 μM)
Procedure: FIGS. 1A-1C. A human apoE derived peptide (hEP) suppresses HCV infection. (A) Schematic illustration of apoE protein domains and the amino acid sequences of hEP and mEP peptides. The amino acid sequences shown are hEP-1 (SEQ ID NO: 6) and mEP (SEQ ID NO: 20). (B) Dose dependent inhibition of HCVcc infection by hEP. Huh7.5.1 cells were infected with JFH-1 HCVcc-Luc (MOI˜0.5) in the presence of hEP or mEP for 2 hours. After removal of virus and peptides, cells were further incubated for 48 hours prior to luciferase assay. Data are presented as % inhibition relative to control infections in which cells were treated with DMSO (0%). Results are expressed as mean±standard deviation (s.d.) (n=3). (C). Huh7.5.1 cells were treated with hEP or DMSO at indicated doses for 48 hours. The effect of hEP on cell viability was measured by a CellTiter Glo assay kit.
Huh7.5.1 cells (10^5 per well) were treated with hEP or DMSO at various concentrations for 48 hours in 24-well plates. The numbers of viable cells in culture were determined using the CELLTITER-GLO® Cell Viability Luminescent Assay kit according to the manufacturer's instruction (Promega).

HCVcc-luc [1] = assay: Attachment versus post-attachment inhibition assay; type: cell-based, Hepatitis C virus; conditions: heparin 200 μg/ml, anti-CD81 5 μg/ml, hEP 20 μg/ml, bafilomycin A1 10 nM
Procedure: (§1) FIGS. 5A-5D. hEP inhibits HCV entry at the attachment step. (A) HCVcc-luc was first mixed with either scrambled peptide or hEP-2 (20 μg/ml) for one hour at room temperature. In Group 1, mixed virus was directly added to Huh7.5.1 cells, whereas in Group 2, virus was purified through ultracentrifuge at 28,000×g for 4 hours in order to remove peptide, and then used to infect Huh7.5.1 cells. **p<0.005. (B) The kinetics of hEP- and bafilomycin A1-mediated inhibition were determined by time-of-addition assays, as described in the examples section. Fitted lines represent sigmoidal time-dependent curves (mean of n=3; error bars, s.d.). (C) HCVcc-Luc was added to Huh7.5.1 cells at 4° C. and incubated for 1.5 hrs. Unbound virus was removed by 2 washes with cold media, fresh media was added, and the cells were shifted to 37° C. to allow synchronous infection to proceed. Heparin (200 μg/ml), anti-CD81 monoclonal antibody (5 μg/ml), hEP (20 μg/ml), or bafilomycin A1 (10 nM) were present in the media either continuously, during the 4° C. incubation only (attachment), or during the 37° C. incubation phase only (post-attachment). % Inhibition was calculated as 100-percent infection relative to control infections containing DMSO or an isotype antibody control containing 0.01% sodium azide (for anti-CD81 only) (mean of n=3; error bars, s.d.). (D) The effects of hEP (2.7 μM) or scrambled peptide on HCV binding were determined as described in the examples section. Results were calculated as relative RNA copies with numbers obtained from the scrambled peptide treated wells set to 100 (mean of n=3; error bars, s.d.). **p<0.005.
To investigate the mechanistic action of hEP, three sets of experiments were conducted. First, hEP-2 (SEQ ID NO: 9) or scrambled peptide-treated HCVcc were purified through ultracentrifugation to remove the peptide and then used to infect naïve Huh7.5.1 cells. […] Second, to determine the kinetics of inhibition, a time-of-addition experiment was conducted. HCV remained sensitive to bafilomycin A1, a fusion inhibitor that prevents endosome acidification, until 3 hours after the 37° C. temperature shift (FIG. 5B), which is consistent with previous reports (Koutsoudakis et al., J Virol 2006; 80:5308-5320). […] In order to determine whether hEP-2 (SEQ ID NO: 9) blocks infection at the initial attachment step or a downstream event in the HCV entry process, hEP-2 (SEQ ID NO: 9) was either added together with HCVcc to cells during the 4° C. attachment step only, and then removed prior to shifting the temperature to 37° C., or added only after the temperature shift. As a positive control, hEP-1 was present during the entire course of the experiment. […] Finally, the direct binding of virions to cell surface was measured using a real-time PCR based assay.

HCVcc-luc [2] = assay: Time-of-addition assay; type: cell-based, Hepatitis C virus; conditions: 10 nM bafilomycin A1
Procedure: as §1, with “bars, s.d.). […] Heparin (200” for “bars, s.d.). (C) HCVcc-Luc was added to Huh7.5.1 cells at 4° C. and incubated for 1.5 hrs. Unbound virus was removed by 2 washes with cold media, fresh media was added, and the cells were shifted to 37° C. to allow synchronous infection to proceed. Heparin (200”, “s.d.). **p<0.005. […]” for “s.d.). **p<0.005.”

Structure (SMILES) | Cytotoxicity (cell viability) (Huh7.5.1 cells) | Inhibition when present after the temperature shift only (post-attachment) (HCVcc-luc [1]) | Time after 37° C. temperature shift until which HCV remained sensitive (HCVcc-luc [2]) [h]
C[C@H](N)C(=O)N[C@@H]1[C@H]2C(=C(O)C[C@@H](O)[C@@H]2O)C(=O)O[C@]1(C)C(Cl)Cl [Bactobolin, reference compound] | induced significant cell death |  | 
CO/C1=C\C(C)=C\[C@@H](C)[C@@H](O)[C@@H](C)C/C(C)=C/C=C/[C@H](OC)[C@@H]([C@@H](C)[C@@H](O)[C@H](C)[C@@]2(O)C[C@@H](O)[C@H](C)[C@@H](C(C)C)O2)OC1=O [bafilomycin A1, reference compound] |  | most effective | ≤ 3
